Data set [1] relates to sites of the wound or injury. The following applies: mice with small injuries or wounds (cuts, scratches); data not shown.
For a further data set, the system named is spontaneous tumors. The following applies: 10 mg by gavage; X-ray imaging about two hours after; mice with spontaneous tumors; same mice before treatment showed no foci. The source says: As described above, oxidative foci or tumors may be identified by X-ray radiographic imaging of animals following administration of an indigogenic compound of the present invention. The radio-opaque indigo-like product formed and deposited with residence time in FROS-containing tumor tissues may then be detected.
In this example, female C3H/HeN mice were obtained as multiparous retired breeders (i.e., after 3 to 4 litters) that were positive for a mammary tumor virus. See, e.g., Sellitti, D. F., Tseng, Y-C., and Latham, K. R., “Effect of 3,5,3′-Triiodo-L-thyronine on the Incidence and Growth Kinetics of Spontaneous Mammary Tumors in C3H/HeN Mice,” Cancer Research, 41: 5015-19 (1981), the entire contents and disclosure of which are incorporated herein by reference. Mice showing spontaneous tumors were given 10 mg of 5-Iodo-Indoxyl-3′,5′-Diiodo-4′-hydroxy ether substrate (product of Example 4) by gavage. These mice were then subjected to X-ray imaging of the tumors about two hours after being fed the iodo-indigogenic compound. […] When developed, the X-ray film appears dark in areas where more transmission occurs and light in areas where less transmission occurs.

Data set [2] is described as follows: Cleavage of C—C bond during oxidative dehalogenation reaction. In kind it is physicochemical. The following applies: oxidative or free radical-mediated dehalogenation. The source says:
It has also been discovered that other types of bonds or linkages may also be cleaved by oxidative or free radical-mediated dehalogenation of the phenol ring. For example, as described herein, it has now been observed that a carbonyl linkage, a nitrogen linkage, a sulfinyl linkage and possibly a C—C bond on the phenol ring may also be cleaved by the oxidative dehalogenation reaction. These bonds are also considered stable, and their cleavage in connection with the dehalogenation reaction is surprising as well. One caveat with the C—C bond or linkage is that depending on the particular starting compound structure and the substituents or groups attached to the halogenated phenol ring via the C—C bond, the C—C bond or linkage may or may not be generally cleaved during or following the dehalogenation reaction (see below). […] However, other compounds do become cleaved. It is important to note that whether a C—C bond of a particular starting compound is “cleavable,” or becomes cleaved, may not be all-or-nothing (i.e., the C—C bond may be considered non-cleavable even though a small or minute amount of cleavage may occur, and vice versa). Thus, the amount or percentage of cleavage may be partial with the alternatively cleaved or non-cleaved product being possibly undetected or minute. […]

Data set [3] in a line: Spontaneous ether cleavage and deiodination in buffered aqueous solution exposed to sunlight. In kind it is physicochemical. The conditions noted are these: about 1 mM in carbonate buffer (pH 8.0), sunlight for about one hour. The source says: In contrast to reductive deiodination, spontaneous dehalogenation (e.g., deiodination) of a halogentated phenol ring in the presence of an oxidizing agent(s) and/or free radical(s) with cleavage of a chemical linkage, such as an ether linkage, etc., between the phenol ring and a conjugated compound has not been described. According to the present invention, cleavage of the ether linkage between the aromatic rings of thyroid hormone may form visibly colored quinone and iodine-containing products in buffered aqueous solutions in vitro, and this ether cleavage reaction may be accelerated under basic pH conditions and with exposure to ionizing radiation or light. These conditions favor the increased formation of oxidizing agents and/or free radicals, which are believed to promote the reaction. […] A quinone and an iodotyrosine product are also formed by cleavage of the ether linkage during the reaction. According to embodiments of the present invention, a spontaneous reaction of dehalogenation and cleavage of a chemical bond is proposed for the targeted delivery and release of a drug compound at or to sites of inflammation or disease. This spontaneous reaction is further proposed as a basis for scavenging free radicals and/or oxidative agents (FROS) as well as for the creation of a detectable compound(s) that may be used for diagnostic purposes.

Consider `Oc1c(I)cc(Oc2c[nH]c3ccc(I)cc23)cc1I` [Example 4, 5-Iodo-Indolyl-3′,5′-Diiodo-4′-hydroxyl-p-Phenol Ether], for which the “X-ray detection at sites of wound or injury” value in data set [1] is recorded as “strong detection was observed at the sites of the wound or injury”. Besides, the “radio-opaque tumor regions or foci by X-ray” value with spontaneous tumors was “radio-opaque tumor regions or foci”.

Regarding `N[C@@H](Cc1ccc(O)c(I)c1)C(=O)O` [MIT, 3-iodo-4-hydroxy-L-phenylalanine], in data set [2], the “cleavage of C—C bond with the dehalogenation reaction” value was “generally not to be cleaved”. Turning to `N[C@@H](Cc1cc(I)c(Oc2cc(I)c(O)c(I)c2)c(I)c1)C(=O)O` [thyroxine], in data set [3], the “cleavage of ether linkage with iodide release” value is “the ether linkage is broken spontaneously”.
